# Where two headings read alike, the source gives them in different places.
# How the values were obtained:
# [1] = test system: Key Broadleaf Weed and Crop Species; experiment: Post-Emergent Test II: postemergent herbicidal activity, visual rating after 14 d (Table 7); format: in vivo; conditions: post-emergence, 336 h; for pest or weed control at 35 g/ha: 35 g ai/ha; for pest or weed control at 70 g/ha: 70 g ai/ha; for pest or weed control at 140 g/ha: 140 g ai/ha
# In short: (§1)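 Visual 0-100% injury score (0 no injury, 100 complete kill) at 14 d post-spray, relative to untreated plants. Seedlings at 1st-2nd true leaf stage; track sprayer at 187 L/ha, highest rate plus ½×, ¼×, ⅛×, 1/16× serial dilutions. Subirrigated after treatment.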
# [2] = test system: Key Grass and Sedge Weeds as well as Grass Crops; experiment: Post-Emergent Test II: postemergent herbicidal activity, visual rating after 14 d (Table 8); format: in vivo; conditions: post-emergence, 336 h; for pest or weed control at 35 g/ha: 35 g ai/ha; for pest or weed control at 70 g/ha: 70 g ai/ha; for pest or weed control at 140 g/ha: 140 g ai/ha
# In short: as §1
# [3] = lambsquarters (Chenopodium album), read-out: Visual Growth Reduction (%) 14 Days After Application CHEAL
# [4] = oilseed rape, canola (Brassica napus), read-out: Visual Growth Reduction (%) 14 Days After Application BRSNN
# [5] = redroot pigweed (Amaranthus retroflexus), read-out: Visual Growth Reduction (%) 14 Days After Application AMARE
# [6] = sunflower (Helianthus annuus), read-out: Visual Growth Reduction (%) 14 Days After Application HELAN
# [7] = velvetleaf (Abutilon theophrasti), read-out: Visual Growth Reduction (%) 14 Days After Application ABUTH
# [8] = wild poinsettia (Euphorbia heterophylla), read-out: Visual Growth Reduction (%) 14 Days After Application EPHHL
# [9] = barnyardgrass (Echinochloa crus-galli), read-out: Visual Growth Reduction (%) 14 Days After Application ECHCG
# [10] = giant foxtail (Setaria faberi), read-out: Visual Growth Reduction (%) 14 Days After Application SETFA
# [11] = maize, corn (Zea mays), read-out: Visual Growth Reduction (%) 14 Days After Application ZEAMX
# [12] = rice (Oryza sativa), read-out: Visual Growth Reduction (%) 14 Days After Application ORYSA
# [13] = wheat, spring (Triticum aestivum), read-out: Visual Growth Reduction (%) 14 Days After Application TRZAS
# [14] = yellow nutsedge (Cyperus esculentus), read-out: Visual Growth Reduction (%) 14 Days After Application CYPES
SMILES,"pest or weed control at 35 g/ha [1, 3] [%]","pest or weed control at 70 g/ha [1, 3] [%]","pest or weed control at 140 g/ha [1, 3] [%]","pest or weed control at 35 g/ha [1, 4] [%]","pest or weed control at 70 g/ha [1, 4] [%]","pest or weed control at 140 g/ha [1, 4] [%]","pest or weed control at 35 g/ha [1, 5] [%]","pest or weed control at 70 g/ha [1, 5] [%]","pest or weed control at 140 g/ha [1, 5] [%]","pest or weed control at 35 g/ha [1, 6] [%]","pest or weed control at 70 g/ha [1, 6] [%]","pest or weed control at 140 g/ha [1, 6] [%]","pest or weed control at 35 g/ha [1, 7] [%]","pest or weed control at 70 g/ha [1, 7] [%]","pest or weed control at 140 g/ha [1, 7] [%]","pest or weed control at 35 g/ha [1, 8] [%]","pest or weed control at 70 g/ha [1, 8] [%]","pest or weed control at 140 g/ha [1, 8] [%]","pest or weed control at 35 g/ha [2, 9] [%]","pest or weed control at 70 g/ha [2, 9] [%]",other results
COC(=O)c1nc(-c2cc3c(cc2F)OCO3)c(F)c(N)c1Cl [Compound 16],45 to 59,60 to 74,60 to 74,30 to 44,60 to 74,85 to 94,85 to 94,85 to 94,95 to 100,85 to 94,95 to 100,95 to 100,60 to 74,60 to 74,75 to 84,95 to 100,95 to 100,95 to 100,60 to 74,60 to 74,"pest or weed control at 140 g/ha [2, 9]: 75 to 84%; pest or weed control at 35 g/ha [2, 10]: 60 to 74%; pest or weed control at 70 g/ha [2, 10]: 60 to 74%; pest or weed control at 140 g/ha [2, 10]: 60 to 74%; pest or weed control at 35 g/ha [2, 11]: 30 to 44%; pest or weed control at 70 g/ha [2, 11]: 45 to 59%; pest or weed control at 140 g/ha [2, 11]: 75 to 84%; pest or weed control at 35 g/ha [2, 12]: 0 to 29%; pest or weed control at 70 g/ha [2, 12]: 0 to 29%; pest or weed control at 140 g/ha [2, 12]: 0 to 29%; pest or weed control at 35 g/ha [2, 13]: 0 to 29%; pest or weed control at 70 g/ha [2, 13]: 30 to 44%; pest or weed control at 140 g/ha [2, 13]: 45 to 59%; pest or weed control at 35 g/ha [2, 14]: 0 to 29%; pest or weed control at 70 g/ha [2, 14]: 45 to 59%; pest or weed control at 140 g/ha [2, 14]: 45 to 59%"
Nc1cc(-c2cc(F)c3c(c2)OC(F)(F)O3)nc(C(=O)O)c1Cl [Compound 44],0 to 29,0 to 29,0 to 29,0 to 29,0 to 29,0 to 29,0 to 29,0 to 29,0 to 29,0 to 29,0 to 29,0 to 29,0 to 29,0 to 29,0 to 29,0 to 29,0 to 29,0 to 29,60 to 74,60 to 74,"pest or weed control at 140 g/ha [2, 9]: 75 to 84%; pest or weed control at 35 g/ha [2, 10]: 0 to 29%; pest or weed control at 70 g/ha [2, 10]: 0 to 29%; pest or weed control at 140 g/ha [2, 10]: 0 to 29%; pest or weed control at 35 g/ha [2, 11]: 0 to 29%; pest or weed control at 70 g/ha [2, 11]: 0 to 29%; pest or weed control at 140 g/ha [2, 11]: 0 to 29%; pest or weed control at 35 g/ha [2, 12]: 0 to 29%; pest or weed control at 70 g/ha [2, 12]: 0 to 29%; pest or weed control at 140 g/ha [2, 12]: 0 to 29%; pest or weed control at 35 g/ha [2, 13]: 0 to 29%; pest or weed control at 70 g/ha [2, 13]: 0 to 29%; pest or weed control at 140 g/ha [2, 13]: 0 to 29%; pest or weed control at 35 g/ha [2, 14]: 0 to 29%; pest or weed control at 70 g/ha [2, 14]: 0 to 29%; pest or weed control at 140 g/ha [2, 14]: 0 to 29%"
